One experiment addresses T1, ULK1 kinase (Homo sapiens, UniProt O75385, E37A/K38A).
T1 construct: (residues 1-283; ID NO: 1); purchased Beryllium
T1 sequence (O75385 1-283 E37A/K38A): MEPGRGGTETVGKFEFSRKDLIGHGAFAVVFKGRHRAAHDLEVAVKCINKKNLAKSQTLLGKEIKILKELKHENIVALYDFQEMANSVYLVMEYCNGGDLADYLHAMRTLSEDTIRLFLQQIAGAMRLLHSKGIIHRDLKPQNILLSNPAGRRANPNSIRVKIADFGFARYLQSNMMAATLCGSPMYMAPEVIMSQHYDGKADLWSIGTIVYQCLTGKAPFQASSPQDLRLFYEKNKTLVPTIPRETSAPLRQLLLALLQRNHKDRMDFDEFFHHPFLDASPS
In words: Biochemical assay for ULK1 (coupled pyruvate kinase/lactate dehydrogenase assay). The following applies: 1 mM ATP, 0.1 nM ULK1; read-out: ULK1 (inhibition of biochemical activity), IC50. An outline of the steps:
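IC50 values were fitted to percent inhibition, normalised with no-compound and known-inhibitor controls, using rates from 2–3 h of a 6 h read at 30 °C. ADP was coupled through pyruvate kinase/lactate dehydrogenase to NADH loss at 340 nm.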

Another experiment deals with T2, ULK2 kinase (Homo sapiens, UniProt Q8IYT8).
T2 construct: (residues 1-306 with N-terminal GST and His tag; ID NO: 2); purchased Signal Chem U02-11G
T2 sequence (Q8IYT8 with tags, fused parts or gaps): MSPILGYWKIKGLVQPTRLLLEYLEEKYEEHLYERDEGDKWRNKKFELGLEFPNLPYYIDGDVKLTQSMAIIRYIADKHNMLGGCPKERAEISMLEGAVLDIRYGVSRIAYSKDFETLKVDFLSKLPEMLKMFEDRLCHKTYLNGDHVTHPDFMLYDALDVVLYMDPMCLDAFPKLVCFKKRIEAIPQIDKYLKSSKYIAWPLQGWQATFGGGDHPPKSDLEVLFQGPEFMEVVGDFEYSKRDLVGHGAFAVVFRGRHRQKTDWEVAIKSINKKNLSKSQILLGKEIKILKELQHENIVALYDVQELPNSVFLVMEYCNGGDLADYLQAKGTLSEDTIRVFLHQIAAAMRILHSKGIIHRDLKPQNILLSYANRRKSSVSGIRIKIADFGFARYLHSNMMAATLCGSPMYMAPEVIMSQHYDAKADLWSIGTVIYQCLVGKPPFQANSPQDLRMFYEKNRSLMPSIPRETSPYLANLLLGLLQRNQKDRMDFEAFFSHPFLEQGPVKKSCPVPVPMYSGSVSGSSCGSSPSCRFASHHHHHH
In words: Biochemical assay for ULK2 (coupled pyruvate kinase/lactate dehydrogenase assay). The following applies: 1 mM ATP, 1 nM ULK2; read-out: ULK2 (inhibition of biochemical activity), IC50. An outline of the steps:
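Continuous PK/LDH-coupled NADH oxidation assay (A340) with 1 nM ULK2, 200 μM ULKtide and 1 mM ATP in Tris pH 7.5, 15 mM MgCl2, 1% DMSO, read 6 h at 30° C. Rates from the 2-3 h window converted to percent inhibition against no-compound and known-inhibitor controls; IC50 by four-parameter sigmoidal fit.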

For experiment [1], the system named is ULK kinase substrate ATG13 (pS318-ATG13) in A549 (KRAS mutant) cells. In words: pATG13 levels of mutant KRas A549 cells after treatment with ULK inhibitors in combination with trametinib (ELISA). The experiment is classed as cell-based, human. An outline of the steps: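 A549 cells grown overnight were treated with a test-compound dose response plus trametinib at 250 nM final (or DMSO) overnight at 37° C. Lysates were assayed by total-ATG13 capture and biotinylated pS318-ATG13 detection ELISA (450 nm minus 540 nm background); % phosphorylation versus controls gave IC50 values.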
(In general: An ELISA detects its analyte on a solid surface through an enzyme-linked reagent.)

Drawing on patent publication US20240150368A1, “ULK INHIBITORS AND METHODS OF USE THEREOF” (Deciphera Pharmaceuticals, LLC, priority 2022, published 2024), this text covers IC50 for 29 molecules.

Where only a bound is given, the exact number is not on record here.

Take `CC/C(Nc1cnn(C2CCN(C(C)C)CC2)c1)=C1/C(=O)Nc2ccc(C(=O)NCC3CCC(C4CC4)O3)cc21` (centres unmarked) [Example 3, (Z)—N-((5-cyclopropyltetrahydrofuran-2-yl)methyl)-3-(1-((1-(1-isopropylpiperidin-4-yl)-1H-pyrazol-4-yl)amino)propylidene)-2-oxoindoline-5-carboxamide]: the IC50 (in general, the concentration that inhibits the measured activity by half) at ULK1 kinase lay in the range of 10 to 100 nM; on ULK2 kinase, 100 to 500 nM; in experiment [1], 100 to 300 nM.
For `CC/C(Nc1cnn(C(C)C)c1)=C1/C(=O)Nc2ccc(C(=O)NCC(F)(F)F)cc21` [Example 4, (Z)-3-(1-((1-isopropyl-1H-pyrazol-4-yl)amino)propylidene)-2-oxo-N-(2,2,2-trifluoroethyl)indoline-5-carboxamide] the same measures were ≤ 10 nM, 10 to 100 nM and 100 to 300 nM.
For `CC/C(Nc1cnn(C(C)C)c1)=C1/C(=O)Nc2ccc(C(=O)NCC3(C)COC3)cc21` [Example 5, (Z)-3-(1-((1-isopropyl-1H-pyrazol-4-yl)amino)propylidene)-N-((3-methyloxetan-3-yl)methyl)-2-oxoindoline-5-carboxamide] the same measures were 10 to 100 nM, 100 to 500 nM and > 600 nM.
Consider `CC/C(Nc1cnn(C2CCN(C(C)C)CC2)c1)=C1/C(=O)Nc2ccc(C(=O)N(C)CC(F)(F)F)cc21` [Example 7], for which the IC50 is ≤ 10 nM on ULK1 kinase, 10 to 100 nM on ULK2 kinase and ≤ 100 nM in experiment [1].
Turning to `CC/C(Nc1cnn(C2CCN(C(C)C)CC2)c1)=C1/C(=O)Nc2ccc(C(=O)NCC(F)(F)F)cc21` [Example 8], the IC50 is ≤ 10 nM at ULK1 kinase, 10 to 100 nM at ULK2 kinase and ≤ 100 nM in experiment [1].
Regarding `CC/C(Nc1cnn(C2CCN(C(C)C)CC2)c1)=C1/C(=O)Nc2ccc(C(=O)N(C)CCOC)cc21` [Example 9], the IC50 on ULK1 kinase lay in the range of 10 to 100 nM; in experiment [1], 300 to 600 nM.
`CC/C(Nc1cnn(C2CCN(C(C)C)CC2)c1)=C1/C(=O)Nc2ccc(C(=O)NCC(C)C)cc21` [Example 16]: the IC50 at ULK1 kinase was ≤ 10 nM; at ULK2 kinase, 10 to 100 nM; in experiment [1], ≤ 100 nM.
Turning to `CC/C(Nc1cnn(C2CCN(C(C)C)CC2)c1)=C1/C(=O)Nc2ccc(C(=O)NCC3CCO3)cc21` (centres unmarked) [Example 21], the half-inhibitory concentration (IC50) on ULK1 kinase is 10 to 100 nM; at ULK2 kinase, 10 to 100 nM; in experiment [1], > 600 nM.
Regarding `CC/C(Nc1cnn(C2CCN(C(C)C)CC2)c1)=C1/C(=O)Nc2ccc(C(=O)NCCC#N)cc21` [Example 26], the IC50 was ≤ 10 nM at ULK1 kinase, 10 to 100 nM at ULK2 kinase and > 600 nM in experiment [1].
Taken in the same sequence, the figures for `CC/C(Nc1cnn(C2CCN(C(C)C)CC2)c1)=C1/C(=O)Nc2ccc(C(=O)NCC(C)(C)OC)cc21` [Example 27] were 10 to 100 nM, 100 to 500 nM and 100 to 300 nM.
Taken in the same sequence, the figures for `CC/C(Nc1cnn(C2CCN(C(C)C)CC2)c1)=C1/C(=O)Nc2ccc(C(=O)NCC(C)(C)O)cc21` [Example 28] were 10 to 100 nM, 10 to 100 nM and > 600 nM.
For `CC/C(Nc1cnn(C2CCN(C(C)C)CC2)c1)=C1/C(=O)Nc2ccc(C(=O)NC3CC(F)(F)C3)cc21` [Example 29] the same measures were ≤ 10 nM, 10 to 100 nM and 300 to 600 nM.
Consider `CC/C(Nc1cnn(C2CCN(C(C)C)CC2)c1)=C1/C(=O)Nc2ccc(C(=O)NCC3CC(F)(F)C3)cc21` [Example 30], for which the IC50 is ≤ 10 nM on ULK1 kinase, ≤ 10 nM at ULK2 kinase and 100 to 300 nM in experiment [1].
With `CC/C(Nc1cnn(C2CCN(C(C)C)CC2)c1)=C1/C(=O)Nc2ccc(C(=O)NCCC(F)(F)F)cc21` [Example 31], the IC50 was ≤ 10 nM on ULK1 kinase, ≤ 10 nM on ULK2 kinase and ≤ 100 nM in experiment [1].
For `CC/C(Nc1cnn(C2CCN(C3CCOCC3)CC2)c1)=C1/C(=O)Nc2ccc(C(=O)NCC(C)C)cc21` [Example 37], the IC50 is ≤ 10 nM at ULK1 kinase, 10 to 100 nM at ULK2 kinase and ≤ 100 nM in experiment [1].
For `CC/C(Nc1cnn(C2CCN(C(C)C)CC2)c1)=C1/C(=O)Nc2ccc(C(=O)NCC3CC3)cc21` [Example 42] the same measures were ≤ 10 nM, 10 to 100 nM and ≤ 100 nM.
Turning to `CC/C(Nc1cnn(C2CCN(C(C)C)CC2)c1)=C1/C(=O)Nc2ccc(C(=O)NCC3CCCC3)cc21` [Example 44], the IC50 on ULK1 kinase was ≤ 10 nM; on ULK2 kinase it was ≤ 10 nM; in experiment [1] it was ≤ 100 nM.
With `CC/C(Nc1ccc(N2CCN(C(C)C)CC2)cc1)=C1/C(=O)Nc2ccc(C(=O)NC[C@H]3CCCO3)cc21` [Example 47], the IC50 was ≤ 10 nM at ULK1 kinase, 10 to 100 nM on ULK2 kinase and ≤ 100 nM in experiment [1].
Consider `CC/C(Nc1cnn(C2CCN(C)CC2)c1)=C1/C(=O)Nc2ccc(C(=O)NC[C@H]3CCCO3)cc21` [Example 51], for which the results for the IC50 (at ULK1 kinase; on ULK2 kinase; in experiment [1]) were ≤ 10 nM, 10 to 100 nM and > 600 nM, respectively.
As for `CC/C(Nc1cnn(C2CCNCC2)c1)=C1/C(=O)Nc2ccc(C(=O)NC[C@H]3CCCO3)cc21` [Example 52], the IC50 is ≤ 10 nM on ULK1 kinase, 10 to 100 nM at ULK2 kinase and > 600 nM in experiment [1].
Take `CC/C(Nc1cnn(C2CC3CCC(C2)N3C)c1)=C1/C(=O)Nc2ccc(C(=O)NC[C@H]3CCCO3)cc21` (some centres unmarked) [Example 53]: the IC50 at ULK1 kinase is ≤ 10 nM; on ULK2 kinase, 10 to 100 nM; in experiment [1] it was > 600 nM.
For `CC/C(Nc1cnn(C2CN(C)C2)c1)=C1/C(=O)Nc2ccc(C(=O)NC[C@H]3CCCO3)cc21` [Example 54] the same measures were ≤ 10 nM, 10 to 100 nM and 300 to 600 nM.
Taken in the same sequence, the figures for `CC/C(Nc1cnn(C)c1)=C1/C(=O)Nc2ccc(C(=O)NC[C@H]3CCCO3)cc21` [Example 55] were 10 to 100 nM, 100 to 500 nM and 100 to 300 nM.
Taken in the same sequence, the figures for `CC/C(Nc1cnn(C2CCN(C(C)C)CC2)c1)=C1/C(=O)Nc2ccc(C(=O)NC[C@@H](C)OC)cc21` [Example 58] were 10 to 100 nM, 100 to 500 nM and 100 to 300 nM.
Regarding `CC/C(Nc1ccc(N2CC3CC(C2)N3C)cc1)=C1/C(=O)Nc2ccc(C(=O)NCC(F)(F)F)cc21` [Example 60], the IC50 on ULK1 kinase is ≤ 10 nM; on ULK2 kinase, 10 to 100 nM; in experiment [1], ≤ 100 nM.
Turning to `CC/C(Nc1ccc(N2C[C@H]3CN(C)C[C@H]3C2)cc1)=C1/C(=O)Nc2ccc(C(=O)NCC(F)(F)F)cc21` [Example 61], the IC50 on ULK1 kinase was ≤ 10 nM; at ULK2 kinase, 10 to 100 nM; in experiment [1], ≤ 100 nM.
For `CC/C(Nc1ccc(N2CC3(CN(C)C3)C2)cc1)=C1/C(=O)Nc2ccc(C(=O)NCC(F)(F)F)cc21` [Example 62] the same measures were ≤ 10 nM, 10 to 100 nM and 100 to 300 nM.
Consider `CC/C(Nc1ccc(N2CCN(C(C)C)CC2)cn1)=C1/C(=O)Nc2ccc(C(=O)NC[C@H]3CCCO3)cc21` [Example 93], for which the IC50 at ULK1 kinase is ≤ 10 nM; on ULK2 kinase it was 10 to 100 nM; in experiment [1], ≤ 100 nM.
For `CC/C(Nc1cnc(N2CCN(C(C)C)CC2)cn1)=C1/C(=O)Nc2ccc(C(=O)NCC(F)(F)F)cc21` [Example 94] the same measures were 10 to 100 nM, 10 to 100 nM and 100 to 300 nM.
